The values that follow come from patent US10238689B2, “Methods for combating bacterial infections by killing persister cells with mitomycin C and/or cisplatin” (THE PENN STATE RESEARCH FOUNDATION, priority 2015, dated 2019).

Assay [1] concerns E. coli K-12. Kind of assay: Minimum inhibitory concentration (MIC) assay. The assay is classed as cell-based, Escherichia coli. The note with it: Escherichia coli, K12, 16 h, lack of turbidity, read-out: MIC. How it is done: Minimum inhibitory concentration (MIC) assay. To determine the MICs of cisplatin for E. coli K-12, enterohemorrhagic E. coli (EHEC), S. aureus, and P. aeruginosa (PAO1 and PA14), freshly inoculated cultures (at least two independent cultures) in buffered LB (TSB for S. aureus) were incubated for 16 h with varying concentrations of cisplatin, and growth inhibition was assayed by the lack of turbidity.

Assay [2] relates to EHEC infection. In kind it is in vivo, Caenorhabditis elegans. The settings on record: MMC 10 μg/mL, ciprofloxacin 5 μg/mL, ampicillin 100 μg/mL, 6 h exposure; four replicates.
Assay [3] deals with E. coli BW25113. Kind of assay: Validation of persisters (three rounds of the persister assay). The note with it: for survival rate: ciprofloxacin 5 μg/mL or ampicillin 100 μg/mL, 3 h. The assay is classed as cell-based, Escherichia coli. How it is done: Validation of persisters. To validate that the persister cells are tolerant to antibiotics, not spontaneous resistant mutants, three rounds of the persister assay were performed. Overnight (16 h) cultures of E. coli BW25113 were diluted 1:1000 with fresh buffered LB and grown to a turbidity of ˜0.8 at 600 nm. […] After the first round of antibiotic treatment, a 1 mL sample was centrifuged at 10,000 rpm for 3 min, and the cells were resuspended in 1 mL of normal saline. […] For the second and third rounds, cell suspensions were diluted 1:100 with fresh buffered LB and regrown to a turbidity of ˜0.8 at 600 nm and used for antibiotic treatment followed by the drop assay.

Assay [4] deals with E. coli K-12 cells. Kind of assay: Test of DNA crosslinking compounds for antimicrobial activity. In kind it is cell-based, Escherichia coli. How it is done:
Stocks of cisplatin (2 mg/mL, Sigma-Aldrich, St. Louis, Mo., USA) were prepared in 0.1M NaClO4 and MMC (0.5 mg/mL, Fisher Scientific, Pittsburgh, Pa., USA) was prepared in water. Stocks of busulfan (2 mg/mL, Cayman Chemical, Ann Arbor, Mich., USA), melphalan (2 mg/mL, Cayman Chemical), dynemicin A (5 mg/mL, AdooQ, Irvine, Calif., USA), and tirapazamine (0.5 mg/mL, Sigma-Aldrich) were prepared in dimethylsulfoxide, the stock of cyclophosphamide (0.5 mg/mL, Cayman Chemical) was prepared in water, and the stock of carmustine (214 mg/mL, Enzo Life Sciences, Farmingdale, N.Y., USA) was prepared in ethanol.
In this Example we tested seven other DNA crosslinking compounds: busulfan (100 μg/mL), carmustine (100 μg/mL) cisplatin (100 μg/mL), cyclophosphamide (100 μg/mL), dynemicin A (200 μg/mL), melphalan (100 μg/mL), and tirapazamine (10 μg/mL).

Assay [5] has as its system E. coli K-12. As to the kind of experiment: Planktonic antibiotic killing assay. The assay is classed as cell-based, Escherichia coli. The settings on record: for persistence (surviving population): late-stationary phase, MMC 10, ciprofloxacin 5, gentamicin 10 μg/mL, 3 h. How it is done: (§1) In order to obtain exponential and mid-stationary phase cultures in LB, buffered LB or TSB, overnight cultures (16 h) were diluted 1:1000 in fresh medium and grown to the desired turbidity (i.e., a turbidity below 2 at 600 nm for exponential phase and a turbidity of 3 to 4 at 600 nm for mid-stationary phase). Late-stationary phase cultures in LB or buffered LB were obtained by growing overnight cultures (16 h). In order to obtain exponential and late-stationary phase cultures in M9-glucose, overnight cultures (16 h) were washed diluted 1:1000 in M9-glucose and grown for the desired period of time (i.e., a turbidity of 0.4 at 600 nm for exponential phase and 24 h of growth for late-stationary phase). Anaerobically grown cultures were maintained with ˜20% CO2, ˜79% N2, and ˜1% H2. In order to obtain rifampicin-induced persister cultures in buffered LB, overnight cultures (16 h) were diluted 1:1000 in fresh medium and grown to a turbidity of 0.8 at 600 nm. Cultures were exposed to rifampicin (100 μg/mL) for 30 min, centrifuged, and resuspended in fresh medium to remove the rifampicin.

Assay [6] deals with E. coli O157:H7 (EHEC). Kind of assay: Planktonic antibiotic killing assay. The assay is classed as cell-based, Escherichia coli. The note with it: late-stationary phase, M9-glucose; MMC 10 μg/mL, ciprofloxacin 5 μg/mL, 3 h. How it is done:
as §1

The test system of assay [7] is E. coli K-12 BW25113 VBNC cultures. Kind of assay: VBNC antibiotic killing assay. The assay is classed as cell-based, Escherichia coli. The note with it: culturable population of VBNC cultures; MMC 10 μg/mL, ciprofloxacin 5 μg/mL, 16 h. The protocol: Overnight cultures (16 h) of E. coli K-12 BW25113 grown in LB were diluted 1:1000 in LB and grown to a turbidity of 3.0 at 600 nm. Cells were washed three times with 0.85% NaCl to remove nutrients and incubated in 0.85% NaCl for 32 days until the VBNC population was ˜1,000-fold higher than the culturable population. […] Samples (0.5 mL) were diluted 1:1 with LB to stimulate cellular respiration for 10 min prior to staining with 1 μL of 1 mM RedoxSensor™ Green dye and 1 μL of 20 mM propidium iodide. Samples were visualized in a hemocytometer (Hausser Scientific, Horsham, Pa., USA) using an Olympus BX61 confocal microscope (Olympus, Tokyo, Japan) at 200× magnification in order to determine viability of the VBNC population. Cell counting data was averaged from four images and experiment was performed with at least two independent cultures.

Assay [8] has as its system S. aureus (methicillin sensitive). As to the kind of experiment: Planktonic antibiotic killing assay. The note with it: rich medium (TSB), MMC 10 μg/mL, ciprofloxacin 5 μg/mL, 3 h. In kind it is cell-based, Staphylococcus aureus. The protocol:
as §1

The test system of assay [9] is S. aureus biofilm cultures. As to the kind of experiment: Biofilm antibiotic killing assay. The assay is classed as cell-based, Staphylococcus aureus. The settings on record: minimal medium (modified M9-glucose), 24 h treatment, MMC 10 μg/mL, ciprofloxacin 5 μg/mL.
The test system of assay [10] is E. coli K-12. The assay is classed as cell-based, Escherichia coli. The settings on record: late stationary phase (16 h of growth), buffered LB; cisplatin 500 μg/mL (5×MIC), ciprofloxacin 5 μg/mL (100×MIC), 8 h. How it is done:
Persister cell killing and eradication assays (planktonic cells). For the time course experiment, late stationary phase cells of E. coli K-12 (wild-type and isogenic mutants) were prepared by growing cells overnight (16 h) in LB medium buffered with 100 mM KPO4 at pH 7.0 (buffered LB). A 1 mL culture was used for a drop (10 μL×3) assay to check cell viability at 0 h (i.e., before antibiotic treatment). […] At 1 h intervals, 1 mL culture was centrifuged at 10,000 rpm for 3 min, the supernatant was discarded, the cells were resuspended in 1 mL of normal saline (0.85% NaCl), and the cell suspension was serially diluted for a drop assay to check cell viability.
To test for eradication, the wild-type E. coli K-12 cells were treated with cisplatin for 12 h, a 1 mL sample was centrifuged, the cell pellet was resuspended in 150 μL of normal saline, and the cells were spread on LB agar to check cell viability. Another 1 mL culture was diluted 1:10 with fresh buffered LB and the cells were incubated to allow any remaining cells to replicate. After 12 h, 18 h, and 24 h, 1 mL samples were centrifuged, resuspended in 150 μL of normal saline and spread on LB agar plates to check cell viability. At least two independent cultures were used.

Assay [11] concerns E. coli K-12 persister cells. As to the kind of experiment: Rifampicin-induced persister cell killing assay. The assay is classed as cell-based, Escherichia coli. How it is done: Rifampicin-pretreatment was used to convert nearly all the E. coli exponentially-growing cells to persister cells. In brief, overnight cultures (16 h) of E. coli BW25113 were diluted 1:1000 in buffered LB and grown to a turbidity of 0.8 at 600 nm (250 mL flask, 250 rpm). Cultures were treated with rifampicin (100 μg/mL) for 30 min (250 mL flask, 250 rpm), centrifuged, and resuspended in fresh medium to remove the rifampicin. A 1 mL culture was used for a drop assay to check cell viability at 0 h. […] After 3 h, 1 mL of culture was centrifuged at 10,000 rpm for 3 min, the supernatant was discarded, the cells were resuspended in 1 mL of normal saline, and the cell suspension was serially diluted for a drop assay to check cell viability. In addition, 1 mL samples were centrifuged, and the cell pellet resuspended in 150 μL of normal saline and spread on LB agar.
To test whether lower concentrations than 500 μg/mL of cisplatin generate resistant mutants, 5 mL cultures of rifampicin-induced persister cells were treated with 200 μg/mL of cisplatin and cells were enumerated by the drop assay using LB agar, LB agar with 200 μg/mL of cisplatin (LBCP200), and LB agar with 500 μg/mL of cisplatin (LBCP500).

The subject of assay [12] is EHEC biofilm cultures. The note with it: M9-glucose, 24 h treatment, MMC 10 μg/mL, ciprofloxacin 5 μg/mL.

In brackets after ≈: the same amount, converted by molar mass. Where two headings read alike, the source gives them in different places.

The term MIC denotes the lowest concentration found to suppress growth. For `CC1(C)S[C@@H]2[C@H](NC(=O)[C@H](N)c3ccccc3)C(=O)N2[C@H]1C(=O)O` [ampicillin], in assay [1], the minimal inhibitory concentration (MIC) worked out at 10 µg/mL (≈ 28.6 µM). Also, the “survival of the EHEC-infected worms” value in assay [2] is “enhanced the survival”. Further, the “resistant colonies on antibiotic agar” value in assay [3] (LBCipro5 or LBAmp100 agar) was “no colonies were detected”. Moreover, the survival rate in assay [3] (round 1) is on record as 0.001±0.001%; in assay [3] (round 2), 0.0001±0.0000%; in assay [3] (round 3), 0.0001±0.0000%.
`CS(=O)(=O)OCCCCOS(C)(=O)=O` [busulfan]: in [4] (100 μg/mL), the antimicrobial activity entry is given as “only cisplatin exhibited antimicrobial activity”.
The same measure, in the same setting: for `O=NN(CCCl)C(=O)NCCCl` [carmustine] the value was “only cisplatin exhibited antimicrobial activity”.
`O=C(O)c1cn(C2CC2)c2cc(N3CCNCC3)c(F)cc2c1=O` [ciprofloxacin]: the minimum inhibitory concentration (MIC) in assay [1] was found to be 0.05 µg/mL (≈ 0.151 µM). Moreover, the survival amounted to 0.44±0.08% in assay [5] (anaerobic, late-stationary phase cells in rich medium (LB)); 0.55±0.04% in [8] (exponential phase); 2.2±0.1% in assay [8] (mid-stationary phase); 18±2% in [9]. In addition, the “susceptibility of exponential-phase cultures” value in assay [5] (exponential phase, M9-glucose) is reported as “similarly susceptible”. The “persistence (surviving population)” value in assay [5] (M9-glucose) was 10±1%. This compound also yielded a cells survived in [6] of 1.2±0.1%. Moreover, the “survival of the culturable population” value in assay [7] is 0.40±0.05%. Besides, in assay [2], the “survival of the EHEC-infected worms” value was “enhanced the survival”. The figures for the survival rate in assay [3] (round 1), in assay [3] (round 2) and in [3] (round 3) were 0.045±0.008%, 0.03±0.01% and 0.012±0.002%, respectively. Further, the “time course dependent killing” value in [10] is reported as “had little activity”. For the same compound, the “surviving fraction of persister cells” value in assay [11] came to 9±1%. In [12], this compound came in with a cells surviving of 3±1%.
In the case of `O=P1(N(CCCl)CCCl)NCCCO1` (centres unmarked) [cyclophosphamide], the antimicrobial activity result in assay [4] (100 μg/mL) is “only cisplatin exhibited antimicrobial activity”.
Turning to `COC1=C(C(=O)O)[C@H](C)[C@@]23O[C@]24c2cc(O)c5c(c2N[C@H]3C#C/C=C\C#C[C@H]14)C(=O)c1c(O)ccc(O)c1C5=O` [dynemicin A], in assay [4], the antimicrobial activity entry is “only cisplatin exhibited antimicrobial activity”.
For `N[C@@H](Cc1ccc(N(CCCl)CCCl)cc1)C(=O)O` [melphalan], the antimicrobial activity result in [4] (100 μg/mL) is “only cisplatin exhibited antimicrobial activity”.
On to `Nc1n[n+]([O-])c2ccccc2[n+]1[O-]` [tirapazamine], for which the antimicrobial activity result in [4] (10 μg/mL) was “only cisplatin exhibited antimicrobial activity”.
Turning to gentamicin, the “persistence (surviving population)” value in [5] (M9-glucose) turned out to be 44±5%.
